From patent US8278309B2, “Synthetic mimetics of host defense and uses thereof” (priority 2008, dated 2012)
Structures can show the parent of a compound that is named as a salt. Where two headings read alike, the source gives them in different places.

Legend:
S. aureus (ATCC 13709) = experiment: Mouse thigh burden model; format: in vivo; details: for bacterial reduction vs inoculated control group: thighs at 25 hours
Description: Female 6-7-week old CD-1 mice were made neutropenic with cyclophosphamide (150 mg/kg, i.p.) on days 4 and 1 before i.m. inoculation with S. aureus (ATCC 13709). S. aureus inoculum was prepared by transferring colonies from 18-20-hour tryptic soy agar (TSA) cultures to sterile PBS. The density was adjusted to approximately 10^6 cfu/mL with the aid of a spectrophotometer, and the inoculum concentration was determined by the dilution plate count method. Mice were inoculated by injecting each posterior thigh with 0.1 mL of inoculum. Compound A was given to separate groups of mice (4 females/group) by i.v. bolus doses of 1 or 2 mg/kg/dose at 1 and 5, 1 and 9, or 1 and 13 hours post inoculation as shown in Table 5. A separate control group of 4 mice received the inoculum without antibiotic treatment. Compound A was dissolved 50%/50% v/v sterile USP purified water/PBS. Thighs were harvested at 25 hours after inoculation. Thigh muscle and bone tissue were homogenized, aliquots of serial dilutions were plated on TSA and incubated at 37° C. for 20 hours, and colony counts were obtained to calculate cfu/thigh.

Staph. spp. (coagulase−) = experiment: MIC broth microdilution, Gram-positive clinical isolates; format: cell-based; details: Staph. spp. (coagulase−); 2-3 isolates/organism; read-out: MIC
Description: (§1) Compound A was evaluated in vitro in accordance with defined CLSI documents specific to the organisms (aerobic, anaerobic or yeast) tested in this study. Ampicillin, ceftazidime, cefuroxime, ciprofloxacin, linezolid, and vancomycin were tested alongside as comparator agents for aerobic bacteria; clindamycin and metronidazole were tested as comparators for anaerobes; fluconazole was tested as a comparator for yeast isolates. Stock solutions of Compound A were prepared in dimethyl sulfoxide (DMSO). Ampicillin, ceftazidime, cefuroxime, ciprofloxacin, linezolid, vancomycin, metronidazole, clindamycin, and fluconazole were prepared each according to its manufacturer's guideline.
(§2) Minimum inhibitory concentrations (MICs) in μg/ml were determined according to CLSI guideline M7-A7 by broth microdilution. All aerobes were tested using Mueller-Hinton broth medium with the exception of Streptococcus spp., which were tested using cation-adjusted Mueller-Hinton broth supplemented with 2-5% lysed horse blood.

Staph. saprophyticus = experiment: as above; format: cell-based; details: Staphylococcus saprophyticus; Staph. saprophyticus; 2-3 isolates/organism; read-out: MIC
Description: as §1, §2

Entero. faecalis = experiment: as above; format: cell-based; details: Enterococcus faecalis; Entero. faecalis; 2-3 isolates/organism; read-out: MIC
Description: as §1, §2

Entero. faecium (VRE) = experiment: as above; format: cell-based; details: Enterococcus faecium; Entero. faecium (VRE); 2-3 isolates/organism; read-out: MIC
Description: as §1, §2

Strept. agalactiae = experiment: as above; format: cell-based; details: Streptococcus agalactiae; Strept. agalactiae; 2-3 isolates/organism; read-out: MIC
Description: as §1, §2

Strept. viridians = experiment: as above; format: cell-based; details: Strept. viridians; 2-3 isolates/organism; read-out: MIC
Description: as §1, §2

Staph. aureus (MRSA) = experiment: as above; format: cell-based; details: Staphylococcus aureus; Staph. aureus (MRSA); 2-3 isolates/organism; read-out: MIC
Description: as §1, §2

Strept. pyogenes = experiment: as above; format: cell-based; details: Streptococcus pyogenes; Strept. pyogenes; 2-3 isolates/organism; read-out: MIC
Description: as §1, §2

Strept. pneumoniae = experiment: as above; format: cell-based; details: Streptococcus pneumoniae; Strept. pneumoniae; 2-3 isolates/organism; read-out: MIC
Description: as §1, §2

Staph. spidermidis = experiment: as above; format: cell-based; details: Staph. spidermidis; 2-3 isolates/organism; read-out: MIC
Description: as §1, §2

[1] = Saturation solubility in excipients; format: physicochemical; details: for solubility: thermodynamic from solid
S. aureus (ATCC 13507) = experiment: Rat thigh burden model; format: in vivo; details: for reduction of bacterial load in comparison to inoculated controls / reduction relative to inoculum levels at 1 hour post-infection: 10 mg/kg/dose, 20 mg/kg total dose
Description: For each experiment, female 8-9-week old femoral vein cannulated Crl:CD(SD) rats were made neutropenic with cyclophosphamide (150 mg/kg, i.p.) on days 4 and 1 before i.m. inoculation with S. aureus (ATCC 13507). A suspension of S. aureus was prepared from colonies obtained from an overnight culture, placed in PBS, and adjusted to approximately 10^7 cfu/mL with the aid of a spectrophotometer. Each rat was injected 0.2 mL of inoculum into the thigh muscle of the right hind leg. Thighs were harvested at 25 hours after inoculation and processed to determine cfu/thigh. Compound A was given by i.v. bolus injection into a tail vein or 1-hour i.v. infusion, or 4-hour i.v. infusion via the femoral vein cannulae at different time intervals following inoculation. Separate inoculation control groups were included in each experiment, and vancomycin groups were included as comparative agents in the first and second experiments. Each group, including the controls and comparative agent, consisted of 4 rats.

[2] = rat, in vivo, iv
Description: Maximum tolerated dose (MTD) determinations were made in ascending/descending dose studies in mice and rats. Compound A was administered by either i.v. bolus injection in the tail vein of mice and rats or by i.v. infusion via catheter in the femoral vein of rats. At each dose, two to three animals were administered compound and clinical signs were recorded over a 4 to 7 day period. Gross necropsy was performed at the conclusion of the study.

[3] = In vitro metabolic stability, blood plasma; format: in vitro ADME; details: 5 μM, 37° C.
Description: Pooled plasma samples from human (mixed gender), rat (mixed breed and gender) and dog (mixed breed and gender) were incubated with Compound A (5 μM) at 37° C. for 0 and 60 minutes (duplicate samples). Incubations were terminated by addition of ice-cold precipitation solvent (acetonitrile:glacial acetic acid, 9:1 v/v). Supernatants were diluted with equal volume of 0.1% formic acid and analyzed by HPLC-MS/MS. Plasma stability is reported as % parent compound at 60 minutes relative to amount of parent at 0 minutes.

## N=C(N)NCCCCC(=O)Nc1cc(C(F)(F)F)cc(NC(=O)c2cc(C(=O)Nc3cc(C(F)(F)F)cc(NC(=O)CCCCNC(=N)N)c3O[C@H]3CCNC3)ncn2)c1O[C@H]1CCNC1 [Compound A, pyrimidine-4,6-dicarboxylic acid bis-{[3-(5-guanidino-pentanoylamino)-2-((R)-pyrrolidin-3-yloxy)-5-trifluoromethyl-phenyl]-amide}tetrahydrochloride]
S. aureus (ATCC 13709); 2 mg/kg/dose i.v. bolus at 1 and 5 hours after inoculation
  bacterial reduction vs inoculated control group: 3.96 logs
S. aureus (ATCC 13709); 2 mg/kg/dose i.v. bolus at 1 and 9 hours after inoculation
  bacterial reduction vs inoculated control group: 3.93 logs
S. aureus (ATCC 13709); mouse
  static efficacy dose in the thigh burden model: 2 to 4 mg/kg
Staph. spp. (coagulase−)
  MIC: 0.25 to 0.5 µg/mL
Staph. saprophyticus
  MIC: 0.25 to 0.5 µg/mL
Entero. faecalis
  MIC: 1 µg/mL
Entero. faecium (VRE)
  MIC: 1 µg/mL
Strept. agalactiae
  MIC: 2 µg/mL
Strept. viridians
  MIC: 2 to 8 µg/mL
Staph. aureus (MRSA)
  MIC: 0.5 to 1 µg/mL
Strept. pyogenes
  MIC: 1 to 4 µg/mL
Strept. pneumoniae
  MIC: 4 to 8 µg/mL
Staph. spidermidis
  MIC: 0.25 to 0.5 µg/mL
[1]; 0.9% and 1.2% sodium chloride solution
  behaviour of formulation at saturation: formed a viscous yellow gel
[1]; 15% w/v glycerin in purified water, 25 °C, aqueous with cosolvent or surfactant or cyclodextrin, 15% w/v glycerin in purified water, read-out: saturation solubility at 25° C. (free base)
  solubility: 63.5 mg/mL
[1]; 15% w/v propylene glycol in purified water, 25 °C, aqueous with cosolvent or surfactant or cyclodextrin, 15% w/v propylene glycol in purified water, read-out: saturation solubility at 25° C. (free base)
  solubility: 64.9 mg/mL
[1]; 20% w/v Kleptose in purified water, 25 °C, aqueous with cosolvent or surfactant or cyclodextrin, 20% w/v Kleptose in purified water, read-out: saturation solubility at 25° C. (free base)
  solubility: 79.7 mg/mL
[1]; 20-50% w/v propylene glycol in saline
  behaviour of formulation at saturation: formation of a viscous yellow gel
[1]; 25% w/v Captisol in purified water, 25 °C, aqueous with cosolvent or surfactant or cyclodextrin, 25% w/v Captisol in purified water, read-out: saturation solubility at 25° C. (free base)
  solubility: 64.3 mg/mL
[1]; 30% w/v glycerin in purified water, 25 °C, aqueous with cosolvent or surfactant or cyclodextrin, 30% w/v glycerin in purified water, read-out: saturation solubility at 25° C. (free base)
  solubility: 63.1 mg/mL
[1]; 30% w/v propylene glycol and 5 w/v ethanol in purified water, 25 °C, aqueous with cosolvent or surfactant or cyclodextrin, 30% w/v propylene glycol and 5 w/v ethanol in purified water, read-out: saturation solubility at 25° C. (free base)
  solubility: 43.9 mg/mL
[1]; 30% w/v propylene glycol in purified water, 25 °C, aqueous with cosolvent or surfactant or cyclodextrin, 30% w/v propylene glycol in purified water, gelled during centrifugation but liquefied on standing, read-out: saturation solubility at 25° C. (free base)
  solubility: 59.1 mg/mL
[1]; 40% w/v Kleptose in purified water, 25 °C, aqueous with cosolvent or surfactant or cyclodextrin, 40% w/v Kleptose in purified water, read-out: saturation solubility at 25° C. (free base)
  solubility: 102 mg/mL
[1]; 50% w/v glycerin in purified water, 25 °C, aqueous with cosolvent or surfactant or cyclodextrin, 50% w/v glycerin in purified water, read-out: saturation solubility at 25° C. (free base)
  solubility: 56.8 mg/mL
[1]; 50% w/v propylene glycol in purified water, 25 °C, aqueous with cosolvent or surfactant or cyclodextrin, 50% w/v propylene glycol in purified water, read-out: saturation solubility at 25° C. (free base)
  solubility: 74.7 mg/mL
[1]; Citric Acid/Sodium Citrate (pH 5)
  saturation solubility at 25° C. (free base): 11.2 mg/mL
[1]; DMA, 25 °C, organic solvent or mixture, DMA, read-out: saturation solubility at 25° C. (free base)
  solubility: 0.6 mg/mL
[1]; PEG 400, 25 °C, organic solvent or mixture, PEG 400, read-out: saturation solubility at 25° C. (free base)
  solubility: 18.5 mg/mL
[1]; Tris(hydroxymethyl)aminomethane buffer, 25 °C, pH 7.4, aqueous buffer, pH 7.4, read-out: solubility
  solubility: 61.4 mg/mL
[1]; benzyl alcohol, 25 °C, organic solvent or mixture, Benzyl alcohol, read-out: saturation solubility at 25° C. (free base)
  solubility: 1.83 mg/mL
[1]; citric acid/sodium citrate buffer, 25 °C, pH 3, aqueous buffer, Citric Acid/Sodium Citrate (pH 3), read-out: saturation solubility at 25° C. (free base)
  solubility: 65.5 mg/mL
[1]; citric acid/sodium citrate buffer, 25 °C, pH 5, aqueous buffer, Citric Acid/Sodium Citrate (pH 5), read-out: saturation solubility at 25° C. (free base)
  solubility: 12.1 mg/mL
[1]; ethanol, 25 °C, organic solvent or mixture, Ethanol, read-out: saturation solubility at 25° C. (free base)
  solubility: 1.13 mg/mL
[1]; glycerin, 25 °C, organic solvent or mixture, Glycerin, read-out: saturation solubility at 25° C. (free base)
  solubility: 53 mg/mL
[1]; propylene glycol, 25 °C, organic solvent or mixture, Propylene Glycol, read-out: saturation solubility at 25° C. (free base)
  solubility: 90 mg/mL
[1]; purified water, 25 °C, water, Purified Water, read-out: saturation solubility at 25° C. (free base)
  solubility: 65 mg/mL
[1]; tris(hydroxymethyl)aminomethane HCl buffer, 25 °C, pH 7, aqueous buffer, Tris(hydroxymethyl)amino methane HCl (pH 7.0), read-out: saturation solubility at 25° C. (free base)
  solubility: 61.4 mg/mL
S. aureus (ATCC 13507); 1 hour i.v. infusions
  reduction of bacterial load in comparison to inoculated controls: 3.0 logs
  reduction relative to inoculum levels at 1 hour post-infection: ~2.0 logs
S. aureus (ATCC 13507); i.v. bolus
  reduction of bacterial load in comparison to inoculated controls: 3.2 logs
  reduction relative to inoculum levels at 1 hour post-infection: approximately 2.2 logs
S. aureus (ATCC 13507); rat thigh burden
  efficacy relative to vancomycin: comparable to vancomycin
[2]
  MTD: >24 mg/kg
[3]; Dog (mixed breeds), 60 minutes
  Plasma Stability (%): 100%
[3]; Human, parent at 60 minutes relative to 0 minutes
  Plasma Stability (%): 96%
[3]; Rat (mixed breeds), 60 minutes
  Plasma Stability (%): 102%
